According to patent US20220281821A1, “INDAZOLE COMPOUNDS AND THEIR PHARMACEUTICAL COMPOSITIONS” (Jinan University, priority 2019, published 2022):

How the values were obtained:
TRKA = molecular target: T1, TRKA (Homo sapiens, UniProt P04629); test: Z′-LYTE kinase activity assay, TRKA; assay type: biochemical; conditions: ATP 400 uM
T1 construct: purchased life technologies PV3144
Outline: (§1)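 IC50 values were fitted to inhibition calculated from the emission-ratio-based phosphorylation ratio relative to negative control, across a compound concentration gradient.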

TRKB = molecular target: T2, TRKB (Homo sapiens, UniProt Q16620); test: Z′-LYTE kinase activity assay, TRKB; assay type: biochemical; conditions: ATP 25 uM
T2 construct: purchased life technologies PV3616
Outline: as §1

TRKC = molecular target: T3, TRKC (Homo sapiens, UniProt Q16288); test: Z′-LYTE kinase activity assay, TRKC; assay type: biochemical; conditions: ATP 50 uM
T3 construct: purchased life technologies PV3617
Outline: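 Recombinant TRK kinase tested in a Z′-LYTE FRET assay with 2 μM Tyr 01 peptide substrate in 50 mM HEPES pH 7.5, 10 mM MgCl2, 1 mM EGTA, 0.01% BRIJ-35. IC50 obtained by curve fitting.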

BaF3-CD74-NTRK1 = molecular target: T4, BaF3-CD74-NTRK1 (Homo sapiens, UniProt P04629); test: Cell proliferation inhibition (CCK-8), BaF3-CD74-NTRK1 stable strain; assay type: cell-based, mouse; conditions: BaF3-CD74-NTRK1, 72 hours
T4 construct: fused on or other part: P04233 (HLA class II histocompatibility antigen gamma chain)
Outline: (§2)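 Ba/F3 cells stably electroporated with ETV6-NTRK3, CD74-NTRK1 or ETV6-NTRK2, selected with G418 and grown without IL3, then cloned by limiting dilution.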

BaF3-ETV6-NTRK2 = molecular target: T5, BaF3-ETV6-NTRK2 (Homo sapiens, UniProt Q16620); test: Cell proliferation inhibition (CCK-8), BaF3-ETV6-NTRK2 stable strain; assay type: cell-based, mouse; conditions: BaF3-ETV6-NTRK2, 72 hours
T5 construct: fused on or other part: P41212 (Transcription factor ETV6)
Outline: as §2

BaF3-ETV6-NTRK3 = molecular target: T6, BaF3-ETV6-NTRK3 (Homo sapiens, UniProt Q16288); test: Cell proliferation inhibition (CCK-8), BaF3-ETV6-NTRK3 stable strain; assay type: cell-based, mouse; conditions: BaF3-ETV6-NTRK3, 72 hours
T6 construct: fused on or other part: P41212 (Transcription factor ETV6)
Outline: as §2

[1] = Rat hepatocyte stability experiment; assay type: in vitro ADME
Description: In William medium E, dilute the 37° C. rat hepatocyte suspension to an appropriate density (viable cell density=2×10^6 cells/mL). In addition, a 2× quantification solution (the concentration of the test compound was 2 μM) was additionally prepared in William's medium E. The hepatocyte solution and 2× quantification solution were preheated in a water bath of 37° C. 40 µL of the preheated hepatocyte solution (2×10^6 cells/mL) was added into the designated wells for 5, 15, 30, 60, and 120 min, and add 40 µL of the preheated 2× quantification solution and start timing. An assay plate was placed in a 37° C., 5% CO2 incubator with shaking at 110 rpm. At 5, 15, 30, 60, and 120 minutes, 240 μL of ACN containing IS was added to each well. The plate was then sealed and stored in a −35° C. freezer. After collecting at all time points, the plate was shaken for 2 minutes and then centrifuging was performed for 15 minutes at 6000 rmp. 100 μL of supernatant from each well was transferred to a 96-well sample plate containing 100 μL of water for LC/MS analysis, determination of compound concentrations, calculation of rate constants and half-lives.

T5 sequence (Q16620 538-822 limits assumed): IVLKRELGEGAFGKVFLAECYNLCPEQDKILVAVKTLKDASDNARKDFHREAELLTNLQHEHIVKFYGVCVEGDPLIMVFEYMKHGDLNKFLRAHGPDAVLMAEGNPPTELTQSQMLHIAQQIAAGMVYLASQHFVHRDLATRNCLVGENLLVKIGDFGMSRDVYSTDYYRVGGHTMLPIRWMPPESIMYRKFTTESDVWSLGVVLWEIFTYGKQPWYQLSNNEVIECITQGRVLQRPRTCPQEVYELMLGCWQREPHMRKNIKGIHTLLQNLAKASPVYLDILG
T1 sequence (P04629 440-796 limits assumed): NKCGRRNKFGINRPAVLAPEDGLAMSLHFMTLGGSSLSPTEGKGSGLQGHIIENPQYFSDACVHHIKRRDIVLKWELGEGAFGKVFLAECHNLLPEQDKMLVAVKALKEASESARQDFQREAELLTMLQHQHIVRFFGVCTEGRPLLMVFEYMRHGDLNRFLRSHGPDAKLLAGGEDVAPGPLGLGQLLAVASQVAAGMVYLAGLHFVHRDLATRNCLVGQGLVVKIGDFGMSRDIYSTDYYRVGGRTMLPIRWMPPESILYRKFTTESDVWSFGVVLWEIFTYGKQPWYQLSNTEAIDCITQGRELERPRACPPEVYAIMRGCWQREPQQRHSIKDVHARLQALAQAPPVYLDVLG
T4 sequence (P04629 510-796 limits assumed): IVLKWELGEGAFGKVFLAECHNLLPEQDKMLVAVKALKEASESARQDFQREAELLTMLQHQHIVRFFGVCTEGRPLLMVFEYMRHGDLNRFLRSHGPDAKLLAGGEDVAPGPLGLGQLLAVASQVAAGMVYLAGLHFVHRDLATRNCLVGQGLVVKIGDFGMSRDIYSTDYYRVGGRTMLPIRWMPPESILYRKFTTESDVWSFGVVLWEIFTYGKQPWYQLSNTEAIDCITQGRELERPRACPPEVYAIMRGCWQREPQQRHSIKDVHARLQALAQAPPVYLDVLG
T2 sequence (Q16620 32-822): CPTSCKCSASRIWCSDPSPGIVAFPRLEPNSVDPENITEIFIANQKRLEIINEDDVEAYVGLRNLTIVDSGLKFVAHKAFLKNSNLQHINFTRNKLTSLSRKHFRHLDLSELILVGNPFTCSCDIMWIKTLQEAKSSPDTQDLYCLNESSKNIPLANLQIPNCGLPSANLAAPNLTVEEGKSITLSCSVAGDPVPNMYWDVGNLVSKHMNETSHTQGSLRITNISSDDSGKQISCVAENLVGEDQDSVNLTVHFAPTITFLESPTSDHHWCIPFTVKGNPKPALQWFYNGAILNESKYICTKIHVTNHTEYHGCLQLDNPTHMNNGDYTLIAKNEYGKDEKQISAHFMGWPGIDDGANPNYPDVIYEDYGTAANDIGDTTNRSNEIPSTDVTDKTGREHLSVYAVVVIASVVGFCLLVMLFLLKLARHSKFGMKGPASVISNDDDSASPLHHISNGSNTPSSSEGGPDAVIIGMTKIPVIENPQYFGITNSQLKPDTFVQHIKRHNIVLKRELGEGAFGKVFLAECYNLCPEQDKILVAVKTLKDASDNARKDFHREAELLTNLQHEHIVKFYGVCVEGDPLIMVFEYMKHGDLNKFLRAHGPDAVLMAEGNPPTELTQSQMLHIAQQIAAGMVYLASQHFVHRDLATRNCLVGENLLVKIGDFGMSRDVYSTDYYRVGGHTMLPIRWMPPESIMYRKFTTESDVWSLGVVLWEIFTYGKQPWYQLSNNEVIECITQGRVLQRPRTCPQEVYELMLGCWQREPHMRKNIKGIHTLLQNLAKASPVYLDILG
T6 sequence (Q16288 whole entry, the tested form may be a part): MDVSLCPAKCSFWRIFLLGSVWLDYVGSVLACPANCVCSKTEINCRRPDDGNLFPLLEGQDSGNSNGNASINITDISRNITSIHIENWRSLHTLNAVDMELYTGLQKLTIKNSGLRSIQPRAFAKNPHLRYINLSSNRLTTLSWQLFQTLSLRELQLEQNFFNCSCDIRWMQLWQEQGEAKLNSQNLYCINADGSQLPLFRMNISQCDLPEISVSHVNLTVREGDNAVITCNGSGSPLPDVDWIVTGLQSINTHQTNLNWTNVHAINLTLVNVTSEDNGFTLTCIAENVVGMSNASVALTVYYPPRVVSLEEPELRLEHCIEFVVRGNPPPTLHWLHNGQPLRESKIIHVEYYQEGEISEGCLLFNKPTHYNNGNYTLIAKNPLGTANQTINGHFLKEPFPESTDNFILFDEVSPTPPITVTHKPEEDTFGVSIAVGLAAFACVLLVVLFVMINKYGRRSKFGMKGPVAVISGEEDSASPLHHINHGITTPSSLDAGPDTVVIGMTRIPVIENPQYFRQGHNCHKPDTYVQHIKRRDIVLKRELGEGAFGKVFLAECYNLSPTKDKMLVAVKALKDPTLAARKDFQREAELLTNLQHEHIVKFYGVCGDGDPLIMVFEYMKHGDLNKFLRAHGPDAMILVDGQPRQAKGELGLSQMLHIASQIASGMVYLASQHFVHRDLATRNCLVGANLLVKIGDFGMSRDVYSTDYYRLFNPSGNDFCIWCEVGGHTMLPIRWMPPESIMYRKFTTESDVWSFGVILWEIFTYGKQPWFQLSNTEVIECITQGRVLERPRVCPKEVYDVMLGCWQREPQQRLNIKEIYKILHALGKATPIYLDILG
T3 sequence (Q16288 32-839): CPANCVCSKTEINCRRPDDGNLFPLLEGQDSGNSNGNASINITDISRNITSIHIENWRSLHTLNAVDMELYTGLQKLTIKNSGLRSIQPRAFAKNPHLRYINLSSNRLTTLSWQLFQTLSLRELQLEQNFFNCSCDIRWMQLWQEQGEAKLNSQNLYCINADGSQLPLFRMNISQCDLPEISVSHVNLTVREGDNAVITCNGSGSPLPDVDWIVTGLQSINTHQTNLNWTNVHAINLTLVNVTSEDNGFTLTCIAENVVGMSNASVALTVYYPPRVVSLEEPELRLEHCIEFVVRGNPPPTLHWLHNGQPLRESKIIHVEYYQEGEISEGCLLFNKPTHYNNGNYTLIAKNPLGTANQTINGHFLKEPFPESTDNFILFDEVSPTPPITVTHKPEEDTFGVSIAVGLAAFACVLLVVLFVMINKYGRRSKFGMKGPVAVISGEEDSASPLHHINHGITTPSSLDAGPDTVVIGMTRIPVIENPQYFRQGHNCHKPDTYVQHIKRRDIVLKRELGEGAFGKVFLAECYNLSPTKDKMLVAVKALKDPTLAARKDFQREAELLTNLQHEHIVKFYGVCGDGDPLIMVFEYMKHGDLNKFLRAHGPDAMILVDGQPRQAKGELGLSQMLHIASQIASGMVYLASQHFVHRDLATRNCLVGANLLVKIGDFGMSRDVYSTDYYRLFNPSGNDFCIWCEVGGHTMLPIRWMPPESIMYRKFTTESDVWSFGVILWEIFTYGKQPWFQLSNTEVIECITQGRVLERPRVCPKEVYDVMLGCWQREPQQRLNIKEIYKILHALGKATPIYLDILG

Compound | IC50 (TRKA) [µM] | IC50 (TRKB) [µM] | IC50 (TRKC) [µM] | IC50 (BaF3-CD74-NTRK1) [µM] | IC50 (BaF3-ETV6-NTRK2) [µM] | IC50 (BaF3-ETV6-NTRK3) [µM] | Residual percentage (%) 0 min ([1]; rat hepatocytes, 0 min, average value) [%] | Residual percentage (%) 5 min ([1]; rat hepatocytes, 5 min, average value) [%] | Residual percentage (%) 15 min ([1]; rat hepatocytes, 15 min, average value) [%] | Residual percentage (%) 30 min ([1]; rat hepatocytes, 30 min, average value) | Residual percentage (%) 60 min ([1]; rat hepatocytes, 60 min, average value) | Residual percentage (%) 120 min ([1]; rat hepatocytes, 120 min, average value) | half-life at 1 μM ([1]; rat, rat hepatocytes (suspension)) [min]
Cc1cccc(Cc2ccc3[nH]nc(/C=C/c4ccccn4)c3c2)c1 [DYX-137X, (E)-5-(3-methylbenzyl)-3-(2-(pyridin-2-yl)vinyl)-1H-indazole] | 0.0338 | 0.0808 | 0.0219 | 2.42 | 3.72 | 3.18 | – | – | – | – | – | – | –
FC(F)(F)c1cccc(Cc2ccc3[nH]nc(/C=C/c4ccccn4)c3c2)c1 [DYX-138X, (E)-3-(2-(pyridin-2-yl)vinyl)-5-(3-(trifluoromethyl)benzyl)-1H-indazole] | 0.757 | 0.356 | 0.262 | 6.65 | 4.08 | > 10 | – | – | – | – | – | – | –
CN(c1cc(F)cc(F)c1)c1ccc2[nH]nc(/C=C/c3ccccn3)c2c1 [DYX-139, (E)-N-(3,5-difluorophenyl)-N-methyl-3-(2-(pyridin-2-yl)vinyl)-1H-indazol-5-amine] | 0.015 | 0.0257 | 0.0181 | 2.36 | 1.79 | 1.27 | – | – | – | – | – | – | –
O=S(=O)(c1cc(F)cc(F)c1)c1cc2c(/C=C/c3ccccn3)n[nH]c2cn1 [DYX-149, (E)-5-((3,5-difluorophenyl)sulfonyl)-3-(2-(pyridin-2-yl)vinyl)-1H-pyrazolo[3,4-c]pyridine] | 0.318 | > 1 | 0.155 | 3.08 | 2.46 | 3.1 | – | – | – | – | – | – | –
O=S(=O)(c1cc(F)cc(F)c1)c1ccc2[nH]nc(/C=C/c3ccccn3)c2n1 [DYX-150, (E)-5-((3,5-difluorophenyl)sulfonyl)-3-(2-(pyridin-2-yl)vinyl)-1H-pyrazolo[4,3-b]pyridine] | 0.0033 | 0.0094 | 0.0041 | 0.0652 | 0.163 | 0.12 | – | – | – | – | – | – | –
O=C(Nc1ccc2[nH]nc(/C=C/c3ccccn3)c2c1)c1cc(F)cc(F)c1 [DYX-164, (E)-3,5-difluoro-N-(3-(2-(pyridin-2-yl)vinyl)-1H-indazol-5-yl)benzamide] | 0.196 | 0.741 | 0.226 | 1.93 | 2.58 | 2.24 | – | – | – | – | – | – | –
Fc1ccc(F)c([C@H]2CCCN2c2ccc3[nH]nc(/C=C/c4ccccn4)c3c2)c1 [DYX-170, (R,E)-5-(2-(2,5-difluorophenyl)pyrrolidin-1-yl)-3-(2-(pyridin-2-yl)vinyl)-1H-indazole] | 0.0081 | 0.0184 | 0.0019 | 0.0994 | 0.242 | 0.167 | – | – | – | – | – | – | –
O=C(Nc1cc(F)cc(F)c1)c1ccc2[nH]nc(/C=C/c3ccccn3)c2c1 [DYX-171, (E)-N-(3,5-difluorophenyl)-3-(2-(pyridin-2-yl)vinyl)-1H-indazole-5-carboxamide] | 0.577 | > 1 | 0.532 | 8.04 | 2.73 | 2.64 | – | – | – | – | – | – | –
O=C(Nc1cc(F)cc(F)c1)Nc1ccc2[nH]nc(/C=C/c3ccccn3)c2c1 [DYX-174, (E)-1-(3,5-difluorophenyl)-3-(3-(2-(pyridin-2-yl)vinyl)-1H-indazol-5-yl)urea] | 0.0468 | 0.242 | 0.0941 | 1.18 | 1.91 | 0.623 | – | – | – | – | – | – | –
Fc1cc(F)cc(OCc2ccc3[nH]nc(/C=C/c4ccccn4)c3c2)c1 [DYX-176] | 0.0071 | 0.0214 | 0.0065 | 0.627 | 2.52 | 1.04 | – | – | – | – | – | – | –
Fc1cc(F)cc(CCc2ccc3[nH]nc(/C=C/c4ccccn4)c3c2)c1 [DYX-180, (E)-5-(3,5-difluorophenethyl)-3-(2-(pyridin-2-yl)vinyl)-1H-indazole] | 0.0039 | 0.0099 | 0.0047 | 0.498 | 0.694 | 0.415 | – | – | – | – | – | – | –
Fc1cc(F)cc(CNc2ccc3[nH]nc(/C=C/c4ccccn4)c3c2)c1 [DYX-185, (E)-N-(3,5-difluorobenzyl)-3-(2-(pyridin-2-yl)vinyl)-1H-indazol-5-amine] | 0.0017 | 0.01 | 0.0019 | 0.0326 | 0.0439 | 0.0237 | – | – | – | – | – | – | –
CN(Cc1cc(F)cc(F)c1)c1ccc2[nH]nc(/C=C/c3ccccn3)c2c1 [DYX-187, (E)-N-(3,5-difluorobenzyl)-N-methyl-3-(2-(pyridin-2-yl)vinyl)-1H-indazol-5-amine] | 0.0187 | 0.0203 | 0.0062 | 0.172 | 0.625 | 0.278 | – | – | – | – | – | – | –
Fc1cc(F)cc(NCc2ccc3[nH]nc(/C=C/c4ccccn4)c3c2)c1 [DYX-191, (E)-3,5-difluoro-N-((3-(2-(pyridin-2-yl)vinyl)-1H-indazol-5-yl)methyl)aniline] | 0.0091 | 0.0371 | 0.0166 | 0.264 | 0.667 | 0.503 | – | – | – | – | – | – | –
CN(Cc1ccc2[nH]nc(/C=C/c3ccccn3)c2c1)c1cc(F)cc(F)c1 [DYX-193, (E)-3,5-difluoro-N-methyl-N-((3-(2-(pyridin-2-yl)vinyl)-1H-indazol-5-yl)methyl)aniline] | 0.0454 | 0.12 | 0.0332 | 0.136 | 0.316 | 0.083 | – | – | – | – | – | – | –
Fc1cc(F)cc(Cc2ccc3[nH]nc(/C=C/c4ccncc4)c3c2)c1 [DYX-215, (E)-5-(3,5-difluorobenzyl)-3-(2-(pyridin-4-yl)vinyl)-1H-indazole] | 0.0033 | 0.0224 | 0.0209 | 0.147 | 0.17 | 0.11 | – | – | – | – | – | – | –
Fc1ccc(F)c(CNc2ccc3[nH]nc(/C=C/c4ccccn4)c3c2)c1 [DYX-216A, (E)-N-(2,5-difluorobenzyl)-3-(2-(pyridin-2-yl)vinyl)-1H-indazol-5-amine] | 0.0011 | 0.0065 | 0.0013 | 0.0126 | 0.0087 | 0.0072 | – | – | – | – | – | – | –
C[C@@H](Nc1ccc2[nH]nc(/C=C/C(=O)N3CC[C@H](O)C3)c2c1)c1cc(F)cc(F)c1 [DYX-303, (E)-3-(5-(((R)-1-(3,5-difluorophenyl)ethyl)amino)-1H-indazol-3-yl)-1-((S)-3-hydroxylpyrrolidin-1-yl)prop-2-en-1-one] | 0.003 | 0.0048 | 0.0008 | 0.0101 | 0.02 | 0.0071 | – | – | – | – | – | – | –
Fc1cccc(CNc2ccc3[nH]nc(/C=C/c4ccccn4)c3c2)c1 [DYX-305, (E)-N-(3-fluorobenzyl)-3-(2-(pyridin-2-yl)vinyl)-1H-indazol-5-amine] | 0.0018 | 0.0095 | 0.0013 | 0.0282 | 0.0513 | 0.0229 | – | – | – | – | – | – | –
C[C@]12CC[C@H]3[C@@H](CCC4=CC(=O)CC[C@@]43C)[C@@H]1CC[C@@H]2O [Testosterone, reference compound] | – | – | – | – | – | – | 100.00 | 21.21 | 5.78 | BQL | BQL | BQL | 2.23
